According to article PMC7464559, “Synthesis, Optimization, Antifungal Activity, Selectivity, and CYP51 Binding of New 2-Aryl-3-azolyl-1-indolyl-propan-2-ols” (Pharmaceuticals, 2020):
In brackets after ≈: the same amount, converted by molar mass.

Legend:
[1] = system: ATCC90018 Candida parapsilosis strain; assay: Anti-Candida in vitro assay, ATCC90018; assay type: cell-based; settings: Lodderomyces parapsilosis; Candida parapsilosis ATCC90018, mean of triplicate; read-out: MIC (IC80) ATCC90018
Experimental: (§1) Test fungal strains were obtained from the American Type Culture Collection (ATCC) or were clinical isolates from the Laboratory of Parasitology and Medical Mycology, Centre Hospitalier Universitaire (CHU) of Nantes. The strains were maintained on Sabouraud agar slants and were subcultured 24 h before used. The activity of the target compounds 8a–g and 11a–m was determined by the method previously described. Briefly, molecules were diluted in RPMI 1640 medium supplemented with 0.165 M morpholinopropanesulphonic acid (Sigma-Aldrich, Saint-Quentin Fallavier, France), 2% glucose, and antibiotics. Candida suspensions were prepared in RPMI 1640 medium (Sigma-Aldrich, Saint-Quentin Fallavier, France) adjusted to give a final concentration of 10^3 cells/mL, and a 96-well microplate (Nunc, D. Dutscher, Brumath, France) was seeded with 100 µL. Each concentration of molecules (100 µL) to be tested was added (in triplicate) and plates were incubated at 37 °C for 24 h. The cellular viability was evaluated on the Fluorolite 1000 (Dynatech, France) with an excitation at 550 nm and an emission at 590 nm after a 4 h incubation with 10 µL of Alamar Blue®. […] MIC was expressed as the mean of the triplicate values. KTC and FLC were used as standards.

[2] = system: CA98002 (Candida albicans); assay: Anti-Candida in vitro assay, CA98002; assay type: cell-based; settings: Candida albicans CA98002, mean of triplicate; read-out: MIC (IC80) CA98002
Experimental: as §1

[3] = system: ATCC6258 Candida krusei strain; assay: Anti-Candida in vitro assay, ATCC6258; assay type: cell-based; settings: Pichia kudriavzevii; Candida krusei ATCC6258, mean of triplicate; read-out: MIC (IC80) ATCC6258
Experimental: as §1

CK98003 (Candida krusei) = assay: Anti-Candida in vitro assay, CK98003; assay type: cell-based; settings: Pichia kudriavzevii; Candida krusei CK98003, mean of triplicate; read-out: MIC (IC80) CK98003
Experimental: as §1

C. albicans CA98001 = assay: Anti-Candida in vitro assay (Alamar Blue), C. albicans CA98001; assay type: cell-based; settings: for MIC: Candida albicans, CA98001, 24 h, MIC = IC80, 24 h at 37 °C, mean of triplicate
Experimental: as §1

[4] = system: ATCC2091 Candida albicans strain; assay: Anti-Candida in vitro assay, ATCC2091; assay type: cell-based; settings: Candida albicans ATCC2091, mean of triplicate; read-out: MIC (IC80) ATCC2091
Experimental: as §1

CK98002 (Candida krusei) = assay: Anti-Candida in vitro assay, CK98002; assay type: cell-based; settings: Pichia kudriavzevii; Candida krusei CK98002, mean of triplicate; read-out: MIC (IC80) CK98002
Experimental: as §1

[5] = system: CL98001 (Candida lusitaniae); assay: Anti-Candida in vitro assay, CL98001; assay type: cell-based; settings: Clavispora lusitaniae; Candida lusitaniae CL98001, mean of triplicate; read-out: MIC (IC80) CL98001
Experimental: as §1

[6] = system: CA98005 (Candida albicans); assay: Anti-Candida in vitro assay, CA98005; assay type: cell-based; settings: Candida albicans CA98005, mean of triplicate; read-out: MIC (IC80) CA98005
Experimental: as §1

MRC5 toxicity assay = assay type: cell-based, human; settings: human, MRC-5 human fetal lung fibroblast cells, MRC-5 cells, 96-h incubation, mean of triplicate; read-out: Cytotoxicity IC50 on MRC-5 cells
Experimental: The cytotoxicity of compounds was studied with human fibroblast (MRC5). Cells were grown in RPMI 1640 medium (Sigma-Aldrich, Saint-Quentin Fallavier, France) supplemented with 10% fetal bovin serum (Sigma–Aldrich). Drugs were tested at three concentrations (100, 10, and 1 µM) in triplicate. After a 96-h incubation time, cytotoxicity was measured on the Fluorolite 1000 (Dynatech, Guyancourt, France) after a 4-h incubation time with Uptiblue® (Interchim, Montluçon, France). Inhibitory concentration 50 is a mean of triplicate values. A toxicity index was determined as follow: IC50 against MRC5/Geometric mean of the MICs against Candida spp..

[7] = molecular target: T1, 17α-hydroxylase/17,20-lyase (CYP17) (Homo sapiens, UniProt P05093); assay: In vitro inhibition of 17α-hydroxylase/17,20-lyase; assay type: biochemical; settings: mean of two experiments in duplicate
T1 sequence (P05093 1-508): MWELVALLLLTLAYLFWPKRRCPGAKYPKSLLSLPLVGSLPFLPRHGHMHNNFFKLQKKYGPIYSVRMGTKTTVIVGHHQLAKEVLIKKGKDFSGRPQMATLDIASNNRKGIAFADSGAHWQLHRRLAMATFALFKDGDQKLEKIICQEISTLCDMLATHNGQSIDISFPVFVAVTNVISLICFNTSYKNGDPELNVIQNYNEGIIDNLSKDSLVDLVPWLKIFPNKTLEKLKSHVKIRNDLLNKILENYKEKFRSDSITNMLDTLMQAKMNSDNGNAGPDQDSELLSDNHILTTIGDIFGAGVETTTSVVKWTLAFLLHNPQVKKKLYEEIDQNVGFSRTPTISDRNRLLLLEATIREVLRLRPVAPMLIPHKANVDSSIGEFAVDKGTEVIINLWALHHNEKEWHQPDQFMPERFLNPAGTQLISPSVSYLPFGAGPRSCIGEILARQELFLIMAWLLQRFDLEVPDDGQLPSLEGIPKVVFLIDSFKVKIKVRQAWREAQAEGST
Experimental: The assay was performed similar to described methods [29, 52]. […] Microsomal protein was added to start the reaction. […] After the addition of 1 mL EtOAc, the vials were shaken then centrifuged. The organic phase was removed, vortexed with phosphate buffer (250 µL), 1 M aqueous HCl (50 µL), and then dried. Aliquots of 25 µL methanol, containing 250 pmol of fluorocortisol acetate as internal standard, were added to the extracts. The samples (20 µL) were submitted to HPLC (RP-8 column, methanol/water 1:1, v/v) and measured using UV (240 nm).

SMILES | MIC [1] [µg/mL] | MIC [2] [µg/mL] | MIC [3] [µg/mL] | MIC (CK98003 (Candida krusei)) [µg/mL] | MIC (C. albicans CA98001) [µg/mL] | MIC [4] [µg/mL] | MIC (CK98002 (Candida krusei)) [µg/mL] | melting point [°C] | MIC [5] [µg/mL] | MIC [6] [µg/mL] | IC50 at 96 h (MRC5 toxicity assay) [µM] | Times more active than FLC against C. albicans CA98001 (C. albicans CA98001; ratio of MIC values versus FLC) | CYP17 IC50 [7]
Cc1cc2ccccc2n1CC(O)(Cn1cncn1)c1ccc(F)cc1F (stereo not drawn) [Compound 11f, 2-(2,4-Difluorophenyl)-3-(2-methyl-1H-indol-1-yl)-1-(1H-1,2,4-triazol-1-yl)propan-2-ol] | 2.5 (≈ 6.8 µM) | 0.302 (≈ 0.82 µM) | 17.6 (≈ 47.7 µM) | 5.45 (≈ 14.8 µM) | 0.022 (≈ 0.0597 µM) | 0.199 (≈ 0.54 µM) | 7.59 (≈ 20.6 µM) | 125 to 126 | 0.232 (≈ 0.63 µM) | 0.516 (≈ 1.4 µM) | ~190 |  | 
OC(Cn1cncn1)(Cn1ccc2ccccc21)c1ccc(Br)cc1 (stereo not drawn) [Compound 11c, 2-(4-Bromophenyl)-3-(1H-indol-1-yl)-1-(1H-1,2,4-triazol-1-yl)propan-2-ol] | 2.03 (≈ 5.1 µM) | 0.338 (≈ 0.851 µM) | 1.51 (≈ 3.8 µM) | 2.5 (≈ 6.3 µM) | 0.027 (≈ 0.068 µM) | 0.477 (≈ 1.2 µM) | 2.46 (≈ 6.2 µM) | 186 to 187 | 0.215 (≈ 0.541 µM) | 0.286 (≈ 0.72 µM) | 38 |  | 
Cc1cc2ccccc2n1CC(O)(Cn1cncn1)c1ccc(Cl)cc1Cl (stereo not drawn) [Compound 11g, 2-(2,4-Dichlorophenyl)-3-(2-methyl-1H-indol-1-yl)-1-(1H-1,2,4-triazol-1-yl)propan-2-ol] | > 40 | 0.321 (≈ 0.8 µM) | > 40 | > 40 | 0.0058 (≈ 0.0145 µM) | 0.526 (≈ 1.31 µM) | > 40 | 170 to 171 | 0.181 (≈ 0.451 µM) | 0.269 (≈ 0.67 µM) | 157 |  | 
OC(Cn1ccnc1)(Cn1ccc2ccccc21)c1ccc(F)cc1F (stereo not drawn) [Compound 8d, 2-(2,4-Difluorophenyl)-1-(1H-imidazol-1-yl)-3-(1H-indol-1-yl)propan-2-ol] | 0.614 (≈ 1.74 µM) | 0.609 (≈ 1.72 µM) | 3.86 (≈ 10.9 µM) | 5.21 (≈ 14.7 µM) | 0.00035 (≈ 0.00099 µM) | 0.726 (≈ 2.05 µM) | 5.69 (≈ 16.1 µM) | 166 to 168 | 0.068 (≈ 0.192 µM) | 0.439 (≈ 1.24 µM) | 34 | 57 | 
N#Cc1ccc(C2CCCc3cncn32)cc1 (stereo not drawn) [fadrozole, reference compound] |  |  |  |  |  |  |  |  |  |  |  |  | not active
OC(Cn1cncn1)(Cn1ccc2ccccc21)c1ccc(C(F)(F)F)cc1 (stereo not drawn) [Compound 8f, 1-(1H-Indol-1-yl)-3-(1,2,4-1H-triazol-1-yl)-2-(4-trifluoromethyl-phenyl)propan-2-ol] | 2 (≈ 5.18 µM) | 0.233 (≈ 0.603 µM) | 19.1 (≈ 49.4 µM) | 3.07 (≈ 7.94 µM) | 0.009 (≈ 0.0233 µM) | 0.247 (≈ 0.639 µM) | 10.6 (≈ 27.3 µM) | 165 to 168 | 0.199 (≈ 0.515 µM) | 0.749 (≈ 1.94 µM) | 76 |  | 
